# Data from patent US12172983B2, “EGFR inhibitors” (Blueprint Medicines Corporation, priority 2019, dated 2024).
# pIC50: −log10 of the molar value.
# Experiments:
# [1] = tested on: phosphorylation of EGFR (Tyr1068) in NCI-H1975 cell line that harbors the EGFR L858R T790M mutations; test: NCI-H1975 pEGFR AlphaLISA assay; assay type: cell-based; settings: Homo sapiens, NCI-H1975, inhibition of phosphorylation of mutant EGFR in NCI-H1975 cells; 4-5 hours incubation; read-out: Ext pEGFR H1975
# Outline: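 Phospho-EGFR Tyr1068 AlphaLISA readout: lysates taken from compound-treated H1975 cells (L858R T790M EGFR) after a 4-5 h exposure at 37 °C. Cells had adhered overnight beforehand. IC50 derived by plotting % pEGFR inhibition against log compound concentration.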
# EGFR (L858R T790M C797S) = biological target: T1, EGFR (L858R T790M C797S) (Homo sapiens, UniProt P00533, C797S/L858R/T790M); test: Biochemical EGFR inhibition assay (Caliper mobility shift), EGFR LRTMCS mutant; settings: inhibitory activity against EGFR LRTMCS mutant; apparent IC50; read-out: Ext Enz LRTMCS
# T1 construct: purchased SignalChem E10-122VG
# Outline: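 Apparent IC50s were derived by plotting percent activity against the log of compound concentration. Activity was measured as phosphopeptide electrophoretically separated from substrate, after reactions at room temperature reached 10% to 20% phosphorylation and were halted with 35 mM EDTA.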
# T1 sequence (P00533 25-1210 T790M/C797S/L858R): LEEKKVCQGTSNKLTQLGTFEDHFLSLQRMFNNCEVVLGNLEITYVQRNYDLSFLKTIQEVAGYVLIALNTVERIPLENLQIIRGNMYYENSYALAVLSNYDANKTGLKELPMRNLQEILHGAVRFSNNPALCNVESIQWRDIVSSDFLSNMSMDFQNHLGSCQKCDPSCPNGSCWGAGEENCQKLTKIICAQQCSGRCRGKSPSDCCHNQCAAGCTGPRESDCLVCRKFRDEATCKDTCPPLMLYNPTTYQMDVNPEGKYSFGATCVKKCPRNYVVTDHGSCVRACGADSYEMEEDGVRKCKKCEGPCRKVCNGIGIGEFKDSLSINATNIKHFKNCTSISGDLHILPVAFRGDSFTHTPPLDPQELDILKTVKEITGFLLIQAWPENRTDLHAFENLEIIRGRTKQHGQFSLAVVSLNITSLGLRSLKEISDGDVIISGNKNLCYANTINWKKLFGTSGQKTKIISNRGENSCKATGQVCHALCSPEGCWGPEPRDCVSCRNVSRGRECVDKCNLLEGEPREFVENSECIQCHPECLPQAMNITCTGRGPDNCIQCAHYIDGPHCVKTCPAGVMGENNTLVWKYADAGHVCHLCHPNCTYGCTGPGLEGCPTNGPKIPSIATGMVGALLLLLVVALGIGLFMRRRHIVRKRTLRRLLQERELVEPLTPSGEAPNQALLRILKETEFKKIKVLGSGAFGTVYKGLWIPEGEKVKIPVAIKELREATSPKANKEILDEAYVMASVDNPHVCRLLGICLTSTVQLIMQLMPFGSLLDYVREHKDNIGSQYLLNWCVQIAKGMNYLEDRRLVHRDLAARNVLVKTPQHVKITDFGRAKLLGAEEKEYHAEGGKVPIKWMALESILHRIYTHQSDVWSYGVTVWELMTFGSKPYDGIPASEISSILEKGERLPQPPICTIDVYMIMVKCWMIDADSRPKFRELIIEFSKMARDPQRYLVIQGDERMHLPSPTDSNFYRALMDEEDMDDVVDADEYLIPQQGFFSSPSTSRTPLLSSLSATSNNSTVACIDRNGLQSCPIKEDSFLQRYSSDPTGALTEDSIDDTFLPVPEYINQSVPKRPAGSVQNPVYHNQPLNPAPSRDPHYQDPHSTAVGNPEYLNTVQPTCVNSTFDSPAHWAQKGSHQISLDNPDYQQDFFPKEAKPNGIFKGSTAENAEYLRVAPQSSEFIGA
smiles,measurement,setting,value
"CC(C)c1ccc(N2CC(CS(C)(=O)=O)C2)c2cnc(Nc3ccnc(N4CCC5(CC4)COCCO5)n3)cc12 [Compound 167, N-(2-{1,4-dioxa-9-azaspiro[5,5]undecan-9-yl}pyrimidin-4-yl)-8-[3-(methanesulfonylmethyl)azetidin-1-yl]-5-(propan-2-yl)isoquinolin-3-amine]",pIC50,[1],7.70 to 8.00
same,pIC50,EGFR (L858R T790M C797S),≥ 7.82
"CC(C)c1ccc(N2C[C@H](CS(C)(=O)=O)[C@H]2C)c2cnc(Nc3ccnc(N4CCC(OCCN)CC4)n3)cc12 [Compound 168, N-{2-[4-(2-aminoethoxy)piperidin-1-yl]pyrimidin-4-yl}-8-[(2R,3S)-3-(methanesulfonylmethyl)-2-methylazetidin-1-yl]-5-(propan-2-yl)isoquinolin-3-amine]",pIC50,[1],7.70 to 8.00
same,pIC50,EGFR (L858R T790M C797S),≥ 7.82
"COC1(CN)CCN(c2nccc(Nc3cc4c(C(C)C)ccc(N5C[C@H](CS(C)(=O)=O)[C@H]5C)c4cn3)n2)CC1 [Compound 169, N-{2-[4-(aminomethyl)-4-methoxypiperidin-1-yl]pyrimidin-4-yl}-8-[(2R,3S)-3-(methanesulfonylmethyl)-2-methylazetidin-1-yl]-5-(propan-2-yl)isoquinolin-3-amine]",pIC50,[1],7.30 to 7.52
same,pIC50,EGFR (L858R T790M C797S),7.70 to 7.82
"CC(C)c1ccc(N2CC(CS(=O)(=O)C3CC3)C2)c2cnc(Nc3ccnc(N4CC[C@@H](O)[C@@](C)(F)C4)n3)cc12 [Compound 170, (3S,4R)-1-{4-[(8-{3-[(cyclopropanesulfonyl)methyl]azetidin-1-yl}-5-(propan-2-yl)isoquinolin-3-yl)amino]pyrimidin-2-yl}-3-fluoro-3-methylpiperidin-4-ol]",pIC50,[1],≥ 8.00
same,pIC50,EGFR (L858R T790M C797S),≥ 7.82
"CC(C)c1ccc(N2C[C@H](CS(C)(=O)=O)[C@H]2C)c2cnc(Nc3ccnc(N4CCC(OCCO)CC4)n3)cc12 [Compound 171, 2-({1-[4-({8-[(2R,3S)-3-(methanesulfonylmethyl)-2-methylazetidin-1-yl]-5-(propan-2-yl)isoquinolin-3-yl}amino)pyrimidin-2-yl]piperidin-4-yl}oxy)ethan-1-ol]",pIC50,[1],≥ 8.00
same,pIC50,EGFR (L858R T790M C797S),≥ 7.82
"COC1(CO)CCN(c2nccc(Nc3cc4c(C(C)C)ccc(N5C[C@H](CS(C)(=O)=O)[C@H]5C)c4cn3)n2)CC1 [Compound 175, {1-[4-({8-[(2R,3S)-3-(methanesulfonylmethyl)-2-methylazetidin-1-yl]-5-(propan-2-yl)isoquinolin-3-yl}amino)pyrimidin-2-yl]-4-methoxypiperidin-4-yl}methanol]",pIC50,[1],≥ 8.00
same,pIC50,EGFR (L858R T790M C797S),≥ 7.82
"CC(C)c1ccc(N2CC(CS(C)(=O)=O)C2)c2cnc(Nc3ccnc(N4CC[C@@H](OCCO)[C@@H](F)C4)n3)cc12 [Compound 205, 2-{[(3S,4R)-3-fluoro-1-[4-({8-[3-(methanesulfonylmethyl)azetidin-1-yl]-5-(propan-2-yl)isoquinolin-3-yl}amino)pyrimidin-2-yl]piperidin-4-yl]oxy}ethan-1-ol]",pIC50,[1],≥ 8.00
same,pIC50,EGFR (L858R T790M C797S),≥ 7.82
"CCS(=O)(=O)C[C@H]1CN(c2nnc(C(C)C)c3cc(Nc4ccnc(N5CC[C@@H](OC)[C@@H](F)C5)n4)ncc23)[C@@H]1C [Compound 206, N-{4-[(2R,3S)-3-[(ethanesulfonyl)methyl]-2-methylazetidin-1-yl]-1-(propan-2-yl)pyrido[3,4-d]pyridazin-7-yl}-2-[(3S,4R)-3-fluoro-4-methoxypiperidin-1-yl]pyrimidin-4-amine]",pIC50,[1],≥ 8.00
same,pIC50,EGFR (L858R T790M C797S),≥ 7.82
"CCS(=O)(=O)C[C@H]1CN(c2nnc(C(C)C)c3cc(Nc4ccnc(N5CC[C@H](OC)[C@H](F)C5)n4)ncc23)[C@@H]1C [Compound 207, N-{4-[(2R,3S)-3-[(ethanesulfonyl)methyl]-2-methylazetidin-1-yl]-1-(propan-2-yl)pyrido[3,4-d]pyridazin-7-yl}-2-[(3R,4S)-3-fluoro-4-methoxypiperidin-1-yl]pyrimidin-4-amine]",pIC50,[1],7.70 to 8.00
same,pIC50,EGFR (L858R T790M C797S),≥ 7.82
"COC1(CCN)CCN(c2nccc(Nc3cc4c(C(C)C)ccc(N5C[C@H](CS(C)(=O)=O)[C@H]5C)c4cn3)n2)CC1 [Compound 221, N-{2-[4-(2-aminoethyl)-4-methoxypiperidin-1-yl]pyrimidin-4-yl}-8-[(2R,3S)-3-(methanesulfonylmethyl)-2-methylazetidin-1-yl]-5-(propan-2-yl)isoquinolin-3-amine]",pIC50,[1],7.30 to 7.52
same,pIC50,EGFR (L858R T790M C797S),≥ 7.82
"CC(C)c1ncc(N2C[C@H](CS(C)(=O)=O)[C@H]2C)c2cnc(Nc3ccnc(N4CC[C@H](OC5CC5)[C@H](F)C4)n3)cc12 [Compound 224, N-{2-[(3R,4S)-4-cyclopropoxy-3-fluoropiperidin-1-yl]pyrimidin-4-yl}-8-[(2R,3S)-3-(methanesulfonylmethyl)-2-methylazetidin-1-yl]-5-(propan-2-yl)-2,6-naphthyridin-3-amine]",pIC50,[1],≥ 8.00
same,pIC50,EGFR (L858R T790M C797S),7.70 to 7.82
CC(C)c1ncc(N2C[C@H](CS(C)(=O)=O)[C@H]2C)c2cnc(Nc3ccnc(N4CC[C@@H](OC5CC5)[C@@H](F)C4)n3)cc12 [Compound 225],pIC50,[1],≥ 8.00
same,pIC50,EGFR (L858R T790M C797S),≥ 7.82
"CC(C)c1ccc(N2C[C@H](CS(C)(=O)=O)[C@H]2C)c2cnc(Nc3ccnc(N4CC[C@H](OCCO)[C@H](F)C4)n3)cc12 [Compound 228, 2-((3R,4S)-3-fluoro-1-(4-(5-isopropyl-8-((2R,3S)-2-methyl-3-(methylsulfonylmethyl)azetidin-1-yl)isoquinolin-3-ylamino)pyrimidin-2-yl)piperidin-4-yloxy)ethanol]",pIC50,[1],≥ 8.00
same,pIC50,EGFR (L858R T790M C797S),≥ 7.82
"CC(C)c1ccc(N2C[C@H](CS(C)(=O)=O)[C@H]2C)c2cnc(Nc3ccnc(N4CC[C@@H](OCCO)[C@@H](F)C4)n3)cc12 [Compound 229, 2-((3S,4R)-3-fluoro-1-(4-(5-isopropyl-8-((2R,3S)-2-methyl-3-(methylsulfonylmethyl)azetidin-1-yl)isoquinolin-3-ylamino)pyrimidin-2-yl)piperidin-4-yloxy)ethanol]",pIC50,[1],≥ 8.00
same,pIC50,EGFR (L858R T790M C797S),≥ 7.82
"CNCCO[C@@H]1CCN(c2nccc(Nc3cc4c(C(C)C)ccc(N5C[C@H](CS(C)(=O)=O)[C@H]5C)c4cn3)n2)C[C@@H]1F [Compound 240, N-{2-[(3S,4R)-3-fluoro-4-[2-(methylamino)ethoxy]piperidin-1-yl]pyrimidin-4-yl}-8-[(2R,3S)-3-(methanesulfonylmethyl)-2-methylazetidin-1-yl]-5-(propan-2-yl)isoquinolin-3-amine]",pIC50,[1],≥ 8.00
same,pIC50,EGFR (L858R T790M C797S),≥ 7.82
"CC(C)c1ccc(N2C[C@H](CS(C)(=O)=O)[C@H]2C)c2cnc(Nc3ccnc(N4CC[C@@H](OCCN)[C@@](C)(F)C4)n3)cc12 [Compound 241, N-{2-[(3S,4R)-4-(2-aminoethoxy)-3-fluoro-3-methylpiperidin-1-yl]pyrimidin-4-yl}-8-[(2R,3S)-3-(methanesulfonylmethyl)-2-methylazetidin-1-yl]-5-(propan-2-yl)isoquinolin-3-amine]",pIC50,[1],7.70 to 8.00
same,pIC50,EGFR (L858R T790M C797S),≥ 7.82
"CCS(=O)(=O)C[C@H]1CN(c2ccc(C(C)C)c3cc(Nc4ccnc(N5CC[C@H](OCCO)[C@H](F)C5)n4)ncc23)[C@@H]1C [Compound 243, 2-((3R,4S)-1-(4-(8-((2R,3S)-3-(ethylsulfonylmethyl)-2-methylazetidin-1-yl)-5-isopropylisoquinolin-3-ylamino)pyrimidin-2-yl)-3-fluoropiperidin-4-yloxy)ethanol]",pIC50,[1],≥ 8.00
same,pIC50,EGFR (L858R T790M C797S),≥ 7.82
"CCS(=O)(=O)C[C@H]1CN(c2ccc(C(C)C)c3cc(Nc4ccnc(N5CC[C@@H](OCCO)[C@@H](F)C5)n4)ncc23)[C@@H]1C [Compound 244, 2-((3S,4R)-1-(4-(8-((2R,3S)-3-(ethylsulfonylmethyl)-2-methylazetidin-1-yl)-5-isopropylisoquinolin-3-ylamino)pyrimidin-2-yl)-3-fluoropiperidin-4-yloxy)ethanol]",pIC50,[1],≥ 8.00
same,pIC50,EGFR (L858R T790M C797S),≥ 7.82
"CCS(=O)(=O)C[C@H]1CN(c2ncc(C(C)C)c3cc(Nc4ccnc(N5CC[C@@H](OCCO)[C@@H](F)C5)n4)ncc23)[C@@H]1C [Compound 249, 2-{[(3S,4R)-1-[4-({8-[(2R,3S)-3-[(ethanesulfonyl)methyl]-2-methylazetidin-1-yl]-5-(propan-2-yl)-2,7-naphthyridin-3-yl}amino)pyrimidin-2-yl]-3-fluoropiperidin-4-yl]oxy}ethan-1-ol]",pIC50,[1],≥ 8.00
same,pIC50,EGFR (L858R T790M C797S),≥ 7.82
"CCS(=O)(=O)C[C@H]1CN(c2ncc(C(C)C)c3cc(Nc4ccnc(N5CC[C@H](OCCO)[C@H](F)C5)n4)ncc23)[C@@H]1C [Compound 250, 2-{[(3R,4S)-1-[4-({8-[(2R,3S)-3-[(ethanesulfonyl)methyl]-2-methylazetidin-1-yl]-5-(propan-2-yl)-2,7-naphthyridin-3-yl}amino)pyrimidin-2-yl]-3-fluoropiperidin-4-yl]oxy}ethan-1-ol]",pIC50,[1],≥ 8.00
same,pIC50,EGFR (L858R T790M C797S),≥ 7.82
"CC(C)c1ccc(N2C[C@H](CS(C)(=O)=O)[C@H]2C)c2cnc(Nc3ccnc(N4CC[C@H](OCCN(C)C)[C@H](F)C4)n3)cc12 [Compound 253, N-{2-[(3R,4S)-4-[2-(dimethylamino)ethoxy]-3-fluoropiperidin-1-yl]pyrimidin-4-yl}-8-[(2R,3S)-3-(methanesulfonylmethyl)-2-methylazetidin-1-yl]-5-(propan-2-yl)isoquinolin-3-amine]",pIC50,[1],≥ 8.00
same,pIC50,EGFR (L858R T790M C797S),≥ 7.82
